In brackets after ≈: the same amount, converted by molar mass.
Key:
[1] = system: LPS-induced TNF-α release, human mononuclear cells; assay: LPS-induced TNF-α release from human mononuclear cells of the peripheral blood; type: cell-based; conditions: 20 hours incubation; for IC50: Homo sapiens, LPS-induced, read-out: IC50 (50% inhibition in the release of TNF-α); for Inhibition of TNF-α release in (%): concentration of 50 μ/ml, LPS 2.5 μg
From the text: The release of cytokines from human mononuclear cells of the peripheral blood, i.e. T-cells, B-cells and monocytes, can be studied in vitro after stimulation by lipopolysaccharide (LPS) or the toxic shock syndrome toxin-1 (TSST-1). LPS is a component of the bacterial cell wall and stimulates monocytes and macrophages. TSST-1 is a bacterial superantigen that stimulates T-cells as well as monocytes/macrophages. Superantigens bind to the Vβ chain of the T-cell receptor and to the MHC class II and thus simulate the recognition by a specific T-cell receptor of an antigen presented by the MHC class II. Activation of cells by LPS or TSST-1 induces the release of TNF-α, IFN-γ and other cytokines.
Mononuclear cells were prepared from the heparinized blood of at least three voluntary donors. For this purpose, 20 ml blood samples each were separated according to well known procedures using a Ficoll-Paque gradient. The cells were harvested and washed three times with a cell culture medium. This cell culture medium was composed of RPMI 1640 medium supplemented with 2 mM of glutamine (Life Technologies, Eggenstein, Germany), 10% fetal calf serum (Life Technologies), 50 μg/ml of streptomycin (Sigma, Deisenhofen, Germany), 50 IU/ml of penicillin (Sigma) and 100 μM of b-mercaptoethanol (Merck, Darmstadt, Germany). The mononuclear cells were suspended in 15 ml of cell culture medium and separated in 1 ml fractions in sterile 24-well incubation plates (Sigma). 1 μl of dimethylsulfoxide (DMSO) or 1 μl of a DMSO-solution containing 5 ′ by weight of a compound according to the invention was added to each of the 1 ml fractions. After incubation for 1 hour in a CO2-incubator (5% CO2, 90% humidity), 2.5 μg of LPS (from E. coli 0127: B8, Sigma) or 0.1 μg of TSST-1 (Sigma) were added to each of the fractions containing a compound according to the invention. Incubation of the cultures was continued for 20 hours. The concentrations of TNF-α and IFN-γ in the cell culture supernatants were determined with commercial ELISA-tests (Boehringer Mannheim, Germany; Endogen, Boston, Mass.).
The IC50 value is the concentration in μg/ml which produces a 50% inhibition in the release of TFN-α.

[2] = system: IL-2 release in vivo (T-lymphocytes stimulated by staphylococcal enterotoxin B); parameters: species or system Balb/c mice; conditions: mouse; for ED40 (dosage reducing serum IL-2 concentrations by 40%): ip
[3] = system: TSST-1-induced release of IFN-γ, human mononuclear cells; type: cell-based
[4] = system: TSST-1-induced release of TNF-α, human mononuclear cells; type: cell-based

SMILES | IC50 [1] [mg/L] | Inhibition of TNF-α release in (%) [1] [%] | Maximum inhibition of serum IL-2 increase in % [2] [%] | ED40 (dosage reducing serum IL-2 concentrations by 40%) [2] | Effect on TSST-1-induced release of IFN-γ [3] | Effect on TSST-1-induced release of TNF-α [4] | melting point [°C]
O=C1CCC(N2C(=O)c3ccccc3C2=O)C(=O)N1 (stereo not drawn) [Thalidomide, reference compound] | 50 (≈ 194 µM) | 54 ± 7 | 56 ± 10 | 171 mg/kg i.p. |  |  | 
CC1(n2sc3ccccc3c2=O)CCCNC1=O (stereo not drawn) [Example 4, 2-(3-methyl-2-oxo-piperidin-3-yl)-benzo[d]isothiazol-3-one] |  | 93 ± 9 | 52 ± 3 | <10 mg/kg i.p. |  |  | 
CC1(N2Cc3ccccc3C2=O)CCC(=O)NC1=O (single isomer, unassigned; (-)) [Example 3 (−) enantiomer, (−)-3-Methyl-3-(1-oxo-1,3-dihydro-isoindol-2-yl)-piperidine-2,6-dione] | 8 (≈ 31 µM) | 82 ± 5 | 54 ± 5 | 297 mg/kg i.p. |  |  | 
CC1(n2[se]c3ccccc3c2=O)CCCNC1=O (stereo not drawn) [Example 1, 2-(3-Methyl-2-oxo-piperidin-3-yl)-benzo[d]isoselenazol-3-one] |  | 93 ± 1 | 43 ± 5 | ca. 20^ mg/kg i.p. |  |  | 
CC1(N2Cc3ccccc3C2=O)CCC(=O)NC1=O (racemic) [Example 2, 3-Methyl-3-(1-oxo-1,3-dihydro-isoindol-2-yl)-piperidine-2,6-dione] | 10 (≈ 38.7 µM) | 72 ± 8 | 56 ± 3 | 112 mg/kg i.p. | enhanced compared to thalidomide | enhanced compared to thalidomide | 231 to 232

Source: patent publication US6500845B1, “Lactam derivatives as immunomodulating agents” (Gruenenthal GmbH, priority 1994, dated 2002)
